Reference: patent US7947830B2, “Substituted propenyl piperazine derivatives as novel inhibitors of histone deacetylase” (Janssen Pharmaceutica N.V., priority 2004, dated 2011)
In brackets after ≈: the same amount, converted by molar mass. Where two headings read alike, the source gives them in different places.

How the values were obtained:
[1] = molecular target: histone deacetylase (HeLa nuclear extracts); assay: In vitro assay for inhibition of histone deacetylase (HDAC Fluorescent Activity Assay, Fluor de Lys); format: biochemical; settings: Fluor de Lys substrate
From the text: The in vitro assay for inhibition of histone deacetylase (see example C.1) measures the inhibition of HDAC enzymatic activity obtained with the compounds of formula (I).
The HDAC Fluorescent Activity Assay/Drug Discovery Kit of Biomol (cat.No: AK-500-0001) was used. The HDAC Fluorescent Activity Assay is based on the Fluor de Lys (Fluorogenic […] deAcetylase Lysyl) substrate and developer combination. The Fluor de Lys substrate, comprises an acetylated lysine side chain. Deacetylation of the substrate sensitizes the substrate so that, in the second step, treatment with the Fluor de Lys developer produces a fluorophore.
After 30 min, 1 volume of the developer was added. […] For each experiment, controls (containing HeLa nuclear extract and buffer), a blank incubation (containing buffer but no HeLa nuclear extract) and samples (containing compound dissolved in DMSO and further diluted in buffer and HeLa nuclear extract) were run in parallel. […] All sample were tested 4 times. In each test the blank value was substracted from both the control and the sample values. The control sample represented 100% of substrate deactylation. For each sample the fluorescence was expressed as a percentage of the mean value of the controls. […] Herein the effects of test compounds are expressed as pIC50 (the negative log value of the IC50-value) (see Table F-3).

[2] = system: A2780 ovarian carcinoma cells; assay: Antiproliferative activity on A2780 cells (MTT); format: cell-based, human; settings: Homo sapiens, A2780, 96 h, four days of incubation, read-out: Cellular activity pIC50 C.2. (converted)
Experimental: Cellular activity of the compounds of formula (I) was determined on A2780 tumour cells using a […] assay for cell toxicity or survival (Mosmann Tim, Journal of Immunological Methods 65: 55-63, 1983)(see example C.2).
All compounds tested were dissolved in DMSO and further dilutions were made in culture medium. Final DMSO concentrations never exceeded 0.1% (v/v) in cell proliferation assays. Controls contained A2780 cells and DMSO without compound and blanks contained DMSO but no cells. MTT was dissolved at 5 mg/ml in PBS. A glycine buffer comprised of 0.1 M glycine and 0.1 M NaCl buffered to pH 10.5 with NaOH (1 N) was prepared (all reagents were from Merck).
The human A2780 ovarian carcinoma cells (a kind gift from Dr. T. C. Hamilton [Fox Chase Cancer Centre, Pennsylvania, USA]) were cultured in RPMI 1640 medium supplemented with 2 mM L-glutamine, 50 μg/ml gentamicin and 10% fetal calf serum.
Cells were routinely kept as monolayer cultures at 37° C. in a humidified 5% CO2 atmosphere. Cells were passaged once a week using a trypsin/EDTA solution at a split ratio of 1:40. All media and supplements were obtained from Life Technologies. Cells were free of mycoplasma contamination as determined using the Gen-Probe Mycoplasma Tissue Culture kit (supplier: BioMérieux).
Cells were seeded in NUNC™ 96-well culture plates (Supplier: Life Technologies) and allowed to adhere to the plastic overnight. Densities used for plating were 1500 cells per well in a total volume of 200 μl medium. After cell adhesion to the plates, medium was changed and drugs and/or solvents were added to a final volume of 200 μl. Following four days of incubation, medium was replaced by 200 μl fresh medium and cell density and viability was assessed using an MTT-based assay. To each well, 25 μl […] solution was added and the cells were further incubated for 2 hours at 37° C. The medium was then carefully aspirated and the blue MTT-formazan product was solubilized by addition of 25 μl glycine buffer followed by 100 μl of DMSO. […] Within an experiment, the results for each experimental condition are the mean of 3 replicate wells. For initial screening purposes, compounds were tested at a single fixed concentration of 10^−6 M. For active compounds, the experiments were repeated to establish full concentration-response curves. For each experiment, controls (containing no drug) and a blank incubation (containing no cells or drugs) were run in parallel. The blank value was subtracted from all control and sample values. For each sample, the mean value for cell growth (in absorbance units) was expressed as a percentage of the mean value for cell growth of the control. […] Herein the effects of test compounds are expressed as pIC50 (the negative log value of the IC50-value)(see Table F-3).

[3] = Kinetic solubility in aqueous media (nephelometer, C.3.a); format: physicochemical; settings: aqueous buffer, kinetic from dmso stock; score; phosphate citrate buffer pH 7.4, turbidity
Experimental: The solubility of a compound measures the ability of a compound to stay in solution. In a first method the ability of a compound to stay in aqueous solution upon dilution (see example C.3.a) is measured. DMSO-stock solutions are diluted with a single aqueous buffer solvent in 3 consecutive steps. For every dilution turbidity is measured with a nephelometer.
In the first dilution step, 10 μl of a concentrated stock-solution of the active compound, solubilized in DMSO (5 mM), was added to 100 μl phosphate citrate buffer pH 7.4 and mixed. In the second dilution step, an aliquot (20 μl) of the first dilution step was further dispensed in 100 μl phosphate citrate buffer pH 7.4 and mixed. Finally, in the third dilution step, a sample (20 μl) of the second dilution step was further diluted in 100 μl phosphate citrate buffer pH 7.4 and mixed. All dilutions were performed in 96-well plates. Immediately after the last dilution step the turbidity of the three consecutive dilution steps were measured with a nephelometer. Dilution was done in triplicate for each compound to exclude occasional errors. Based on the turbidity measurements a ranking is performed into 3 classes. Compounds with high solubility obtained a score of 3 and for this compounds the first dilution is clear. Compounds with medium solubility obtained a score of 2. For these compounds the first dilution is unclear and the second dilution is clear.

[4] = system: p21 promoter reporter A2780 tumour in nude mice; assay: p21 promoter induction in vivo method, tumour fluorescence (C.6.c); settings: oral administration, daily during 6 days, 20-40 mpk
Experimental: Another method tests the capacity of compounds to induce p21 as the consequence of HDAC inhibition at the cellular level. […] The reporter gene is a fluorescent protein and the expression of the reporter gene is measured as the amount of fluorescent light emitted (see example C.6.b.). The last method is an in vivo method wherein mice are used for screening the pharmaceutical activity of a compound. The above described stably transformed tumour cells can be administered to mice in an amount sufficient to effect production of a tumour. After the tumour cells had sufficient time to form a tumour, a potentially active compound can be administered to the animals and the effect of said compound on the tumour cells is evaluated by measuring the expression of the reporter gene. Incubation with pharmaceutical active compounds will result in an increase of reporter gene expression compared to the control levels (see example C.6.c.)
A selected clone was injected subcutaneous (10^7 cells/200 μl) into the flank of nude mice and a calliper measurable tumour was obtained after 12 days. […] Tumours were evaluated for fluorescence by the in-house developed Automated Whole Body Imaging System (Fluorescent stereomicroscope type Olympus® SZX12 equipped with a GFP filter and coupled to a CCD camera type JAI® CV-M90 controlled by a software package based on the IMAQ Vision Software from National Instruments®). […]

[5] = not given; remark: listed apart in the source
[6] = Metabolic stability with rat hepatocytes cell culture (C.5.b); format: in vitro ADME; settings: 5 μM
From the text: Metabolism of drugs means that a lipid-soluble xenobiotic or endobiotic compound is enzymatically transformed into (a) polar, water-soluble, and excretable metabolite(s). The major organ for drug metabolism is the liver. […] However, some metabolites may have enhanced activity or toxic effects. Thus drug metabolism may include both “detoxication” and “toxication” processes. One of the major enzyme systems that determine the organism's capability of dealing with drugs and chemicals is represented by the cytochrome P450 monooxygenases, which are NADPH dependent enzymes. Metabolic stability of compounds can be determined in vitro with the use of subcellular human tissue (see example C.5.a.). Here metabolic stability of the compounds is expressed as % of drug metabolised after 15 minutes incubation of these compounds with microsomes. Quantitation of the compounds was determined by LC-MS analysis. Metabolic stability of compounds can also be determined by calculating the half live of compounds in rat hepatocyte cells (see example C.5.b.). […]
Samples were prepared for LC-MS by addition of two volumes of DMSO. […] Of the resulting supernatant 50 μl was analysed by LC-MS. […]
Total injection volume of samples was 50 μL. […] The mass spectrometer was operated in positive ion mode in SIM adjusted to the mass of M+H with a scan width of 1 Da for quantification purposes. […]

[7] = Solubility at different pH's, chemiluminescent nitrogen detector (C.3.b); format: physicochemical; settings: pH 2.3, aqueous buffer, read-out: Solubility C.3.b. pH = 2.3 mg/ml
From the text: In a second method the solubility of a compound at different pH's can be measured with the use of a chemiluminescent nitrogen detector (see example C.3.b).
The solubility of a compound, at different pH's, can also be measured with the use of a cherniluminescent nitrogen detector (see Table F-3).

Row | SMILES | melting point [°C] | Enzymatic activity pIC50 C.1. [1] | IC50 [2] [nM] | solubility [3] [µM] | further results
1 | O=C(NO)c1cnc(N2CCN(C(/C=C/c3ccc(Cl)cc3)CN3CCOCC3)CC2)nc1 (stereo not shown) (hydrate or solvate) [Compound 2] | 135 | – | – | – | –
2 | O=C(NO)c1cnc(N2CCN(C(/C=C/c3ccccc3)CO)CC2)nc1 (stereo not shown) [Compound 1] | 187 | 8.2 | 12.6 | > 455 | tumour fluorescence ranked relative to R306465 [4]: better than R306465
3 | CN(C)C(=O)C(C)(/C=C/c1ccc(F)cc1)N1CCN(c2ncc(C(=O)NO)cn2)CC1 (stereo not shown) (hydrate or solvate) [Compound 10] | 146 | – | – | – | –
4 | CCCO [propanol] | – | – | – | – | % metabolism ([5]; after 15 min incubation with active microsomes, compound 5 μM): 25%
5 | O=C(NO)c1cnc(N2CCN(S(=O)(=O)c3ccc4ccccc4c3)CC2)nc1 [Compound R306465, reference compound] | – | – | – | – | in vitro half-live [6]: 8 min
6 | O=C(NO)c1ccc(N2CCN(C(/C=C/c3ccc(F)cc3)CO)CC2)nc1 (stereo not shown) [Compound 31] | 145 | 8.5 | 39.8 | – | –
7 | CC(=O)OCC(/C=C/c1ccccc1)N1CCN(c2ncc(C(=O)NO)cn2)CC1 (stereo not shown) [Compound 9] | 161 | 9.4 | 25.1 | – | –
8 | O=C(NO)c1cnc(N2CCN(C(/C=C/c3ccccc3)C(=O)NC3CC3)CC2)nc1 (stereo not shown) [Compound 15] | – | 7.6 | 100 | > 455 | –
9 | O=C(NO)c1cnc(N2CCN(C(/C=C/c3ccc(Cl)cc3)CN3CCOCC3)CC2)nc1 (stereo not shown) [Compound 2] | – | 7.4 | 316 | > 455 | –
10 | COc1cc(N)c(Cl)cc1C(=O)NC1CCN(CCCOc2ccc(F)cc2)CC1OC (stereo not shown) [Cisapride] | – | – | – | – | % metabolism ([5]; human, 15 min, 5 μM): 45%

Second part, led by results:

Row | melting point [°C] | Enzymatic activity pIC50 C.1. [1] | IC50 [2] [nM] | solubility [3] [µM] | SMILES | further results
11 | – | 8.1 | 31.6 | > 455 | COc1ccc(/C=C/C(CO)N2CCN(c3ncc(C(=O)NO)cn3)CC2)cc1 (stereo not shown) [Compound 3] | –
12 | – | 7.6 | 39.8 | > 455 | O=C(NO)c1cnc(N2CCN(C(/C=C/c3ccc(C(F)(F)F)cc3)CO)CC2)nc1 (stereo not shown) [Compound 6] | –
13 | – | 7.9 | 39.8 | < 76 | O=C(NO)c1cnc(N2CCN(C(/C=C/c3ccc(-c4ccccc4)cc3)CO)CC2)nc1 (stereo not shown) [Compound 5] | –
14 | 212 | 9.4 | 10 | – | COCC(/C=C/c1ccccc1)N1CCN(c2ncc(C(=O)NO)cn2)CC1 (stereo not shown) [Compound 11] | solubility [7]: 3100 µg/mL (≈ 8.08 mM)
15 | – | 8.2 | 31.6 | > 455 | O=C(NO)c1cnc(N2CCN(C(/C=C/c3ccc(Cl)cc3)CO)CC2)nc1 (stereo not shown) [Compound 4] | in vitro half-live [6]: 23 min
16 | 161 | >9 | 31.6 | – | CC(/C=C/c1ccccc1)N1CCN(c2ncc(C(=O)NO)cn2)CC1 (stereo not shown) [Compound 7] | solubility [7]: 2000 µg/mL (≈ 5.66 mM)
